Drawing on US9290476B2, “Methylene linked quinolinyl modulators of RORγt” (Janssen Pharmaceutica NV, priority 2012, dated 2016), this text covers Kd, IC50 and inhibition for 18 compounds.

Counter-ions that a name gives are not always drawn.

In assay [1] the target is human RORγt ligand binding domain (RORγt LBD) (Homo sapiens (Human), UniProt P51449). Nature of the assay: RORγt ThermoFluor assay (thermal shift binding affinity). The conditions noted are these: estimated from thermal shift. As to the method:
This approach is applicable to a wide variety of systems, and rigorous in theoretical interpretation through quantitation of equilibrium binding constants (KD).
The shift in the melting point described as a ΔTm is proportional to the concentration and affinity of the ligand.
RORγt ThermoFluor® Assay Construct
Protein and compound solutions are dispensed into black 384-well polypropylene PCR microplates (Abgene) and overlayed with silicone oil (1 μL, Fluka, type DC 200) to prevent evaporation.
Bar-coded assay plates are robotically loaded onto a thermostatically controlled PCR-type thermal block and then heated at a typical ramp-rate of 1° C./min for all experiments. Fluorescence was measured by continuous illumination with UV light (Hamamatsu LC6) supplied via fiber optic and filtered through a band-pass filter (380-400 nm; >6 OD cutoff). Fluorescence emission of the entire 384-well plate was detected by measuring light intensity using a CCD camera (Sensys, Roper Scientific) filtered to detect 500±25 nm, resulting in simultaneous and independent readings of all 384 wells. Images were collected at each temperature, and the sum of the pixel intensity in a given area of the assay plate was recorded versus temperature. Reference wells contained RORγt without compounds, and the assay conditions were as follows: • 0.065 mg/mL RORγt • 60 μM 1,8-ANS • 100 mM Hepes, pH 7.0 • 10 mM NaCl • 2.5 mM GSH • 0.002% Tween-20
Project compounds were arranged in a pre-dosed mother plate (Greiner Bio-one) wherein compounds are serially diluted in 100% DMSO by 1:2 from a high concentration of 10 mM over 12 columns within a series (column 12 is a reference well containing DMSO, no compound). The compounds were robotically dispensed directly into assay plates (1×=46 nL) using a Hummingbird capillary liquid handling instrument (Digilab). Following compound dispense, protein and dye in buffer was added to achieve the final assay volume of 3 μL, followed by 1 μL of silicone oil.

The target of assay [2] is human RORγt LBD (Homo sapiens (Human), UniProt P51449). Nature of the assay: RORγt reporter assay (GAL4-RORγt LBD luciferase in HEK293T cells). In kind it is cell-based. The conditions noted are these: for IC50: HEK293T cells, 24 hours compound treatment; for inhibition at 6 µM: HEK-293T, read-out: RORγt reporter Assay, % inhibition @ 6 μM, HEK293T cells, 6 μM. The text has this: A reporter assay was used to test functional activity of RORγt modulatory compounds on transcriptional activation driven by the RORγt LBD. Cells used in the assay were co-transfected with two constructs. The first construct, pBIND-RORγt LBD, contained the wild type human RORγt LBD fused to the DNA binding domain of the GAL4 protein. The second construct, pGL4.31 (Promega Cat no. C935A), contained multiple GAL4 responsive DNA elements upstream of firefly luciferase. […] The mutant construct was called pBIND-RORγt-AF2.
The pBIND vector contains the GAL4 DNA Binding Domain (GAL4 DBD) and the renilla luciferase gene under control of the SV40 promoter. Renilla luciferase expression serves as a control for transfection efficiency and cell viability.
The reporter assay was performed by transiently transfecting HEK293T cells with 5 ng of pBIND-RORγt LBD or pBIND-RORγt LBD-AF2 and 5 μg pGL4.31 (Promega Cat no. C935A) using Fugene 6 ([…] Cat no. E2691) at a 1:6 ratio of DNA: Fugene 6 in a T-75 flask in which cells were at least 80% confluent. Twenty four hours after bulk transfection, cells were plated into 96-well plates at 50,000 cells/well in phenol-red free DMEM containing 5% Lipid Reduced FCS and Pen/Strep. Six hours after plating, cells were treated with compounds for 24 hours. Media was removed and cells were lysed with 50 μL 1× Glo Lysis Buffer (Promega). Dual Glo Luciferase Reagent (50 μL/well) was then added and firefly luciferase luminescence was read on an Envision after a ten minute incubation. Finally, Stop and Glo reagent (50 μL/well) was added and renilla luciferase luminescence was read on an Envision after a ten minute incubation. To calculate the effect of compounds on RORγt activity, the ratio of firefly to renilla luciferase was determined and plotted against compound concentration. Agonist compounds increase RORγt-driven luciferase expression, and antagonist or inverse agonist compounds decrease luciferase expression.
On the technique in general: A reporter such as luciferase makes a cellular process visible.

Chain of human RORγt LBD (P51449 258-518): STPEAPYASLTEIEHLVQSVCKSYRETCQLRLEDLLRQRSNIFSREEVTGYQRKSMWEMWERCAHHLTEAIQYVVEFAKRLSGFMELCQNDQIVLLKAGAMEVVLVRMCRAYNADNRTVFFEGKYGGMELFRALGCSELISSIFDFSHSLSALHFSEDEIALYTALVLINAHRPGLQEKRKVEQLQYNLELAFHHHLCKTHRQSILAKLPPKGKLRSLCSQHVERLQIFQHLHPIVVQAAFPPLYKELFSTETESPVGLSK
Chain of human RORγt ligand binding domain (RORγt LBD) (P51449 other isoform, or with tags, fused parts or gaps): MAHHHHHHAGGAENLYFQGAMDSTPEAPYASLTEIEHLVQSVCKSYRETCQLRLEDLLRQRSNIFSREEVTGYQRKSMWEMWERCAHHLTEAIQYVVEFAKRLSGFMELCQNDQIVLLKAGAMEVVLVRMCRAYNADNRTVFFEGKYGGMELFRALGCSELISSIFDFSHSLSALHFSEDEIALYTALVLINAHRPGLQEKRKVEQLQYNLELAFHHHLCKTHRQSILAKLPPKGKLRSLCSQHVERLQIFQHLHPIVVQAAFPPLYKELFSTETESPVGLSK

The term Kd denotes the equilibrium constant for the complex coming apart. As usually defined, the IC50 is the concentration at which inhibition is half-maximal. High values mean weaker potency, low ones greater potency. As usually defined, the inhibition is the change of the read-out against control, counted positive when it falls. `COc1ccc(Cc2c(OC)nc3ccc(C(O)(c4ccc(Cl)cc4)c4cncn4C)cc3c2Cl)cc1` (stereo not drawn) [Example 13, (4-Chloro-2-methoxy-3-(4-methoxybenzyl)quinolin-6-yl)(4-chlorophenyl)(1-methyl-1H-imidazol-5-yl)methanol.TFA]: the Kd in assay [1] was 0.031 µM. In assay [2], the half-maximal inhibitory concentration (IC50) is ~1 µM and the inhibition at 6 µM was determined as 70%.
As for `CCOc1nc2ccc(C(O)(c3ccc(Cl)cc3)c3cncn3C)cc2c(Cl)c1Cc1ccccc1` (stereo not drawn) [Example 14, (3-Benzyl-4-chloro-2-ethoxyquinolin-6-yl)(4-chlorophenyl)(1-methyl-1H-imidazol-5-yl)methanol.TFA], the Kd in assay [1] is 0.091 µM. In assay [2], the midpoint of inhibition, the IC50, lay at 0.56 µM and the inhibition at 6 µM was 74%.
Take `COc1ccc(C(O)(c2ccc3nc(Cl)c(Cc4ccccc4)c(Cl)c3c2)c2cncs2)cn1` (stereo not drawn) [Example 18, (3-Benzyl-2,4-dichloroquinolin-6-yl)(6-methoxypyridin-3-yl)(thiazol-5-yl)methanol]: the Kd in assay [1] was 0.0045 µM. In assay [2], the IC50 is > 6 µM and the inhibition at 6 µM was found to be 41%.
Take `CCOc1nc2ccc(C(O)(c3ccc(OC)nc3)c3cncs3)cc2c(Cl)c1Cc1ccccc1` (stereo not drawn) [Example 19, (3-Benzyl-4-chloro-2-ethoxyquinolin-6-yl)(6-methoxypyridin-3-yl)(thiazol-5-yl)methanol]: the dissociation constant Kd in assay [1] is 0.0027 µM. Also, in assay [2], inhibition was half-maximal at 6.6 µM (IC50) and the inhibition at 6 µM was found to be 57%.
`CCOc1nc2ccc(C(O)(c3cncs3)c3cncn3C)cc2cc1Cc1ccc(OC)cc1` (stereo not drawn) [Example 24, (2-Ethoxy-3-(4-methoxybenzyl)quinolin-6-yl)(1-methyl-1H-imidazol-5-yl)(thiazol-5-yl)methanol.TFA]: the Kd in assay [1] was 0.75 µM. For the same compound, in assay [2], the IC50 is > 6 µM and the inhibition at 6 µM was 35%.
Regarding `COc1nc2ccc(C(O)(c3ccc(N(C)C)cc3)c3cncn3C)cc2c(Cl)c1Cc1ccc(-n2cccn2)cc1` (stereo not drawn) [Example 26, (3-(4-(1H-Pyrazol-1-yl)benzyl)-4-chloro-2-methoxyquinolin-6-yl)(4-(dimethylamino)phenyl)(1-methyl-1H-imidazol-5-yl)methanol.TFA], the dissociation constant Kd in assay [1] was 0.22 µM. In assay [2], the IC50 amounted to 0.48 µM and the inhibition at 6 µM amounted to 85%.
On to `COc1nc2c(C)cc(C(O)(c3ccc(C(F)(F)F)nc3)c3cncn3C)cc2c(Cl)c1Cc1ccc(-n2cccn2)cc1` (stereo not drawn) [Example 29A, (3-(4-(1H-Pyrazol-1-yl)benzyl)-4-chloro-2-methoxy-8-methylquinolin-6-yl)(1-methyl-1H-imidazol-5-yl)(6-(trifluoromethyl)pyridin-3-yl)methanol], for which, in assay [1], the Kd was 0.0048 µM. In addition, in assay [2], the half-maximal inhibitory concentration (IC50) is 0.091 µM and the inhibition at 6 µM was 96%.
Turning to `COc1nc2ccc(C(O)(c3ccc(N(C)C)cc3)c3cccnc3)cc2c(Cl)c1Cc1ccc(-n2cccn2)cc1` (stereo not drawn) [Example 42, (3-(4-(1H-Pyrazol-1-yl)benzyl)-4-chloro-2-methoxyquinolin-6-yl)(4-(dimethylamino)phenyl)(pyridin-3-yl)methanol], the Kd in assay [1] was 0.36 µM. Further, in assay [2], 0.18 µM corresponded to half-maximal inhibition (IC50) and the inhibition at 6 µM was 96%.
Turning to `OC(c1ccc(F)cc1)(c1cccnc1)c1ccc2nc(Cl)c(Cc3ccc(-n4cccn4)cc3)c(Cl)c2c1` (stereo not drawn) [Example 46, (3-(4-(1H-Pyrazol-1-yl)benzyl)-2,4-dichloroquinolin-6-yl)(4-fluorophenyl)(pyridin-3-yl)methanol], the Kd in assay [1] was 0.022 µM. In addition, in assay [2], the IC50 is 0.052 µM and the inhibition at 6 µM came out at 89%.
For `Cn1cc(C(O)(c2ccc(Cl)cc2)c2ccc3nc(Cl)c(Cc4ccccc4)c(Cl)c3c2)cn1` (stereo not drawn) [Example 49, (3-Benzyl-2,4-dichloroquinolin-6-yl)(4-chlorophenyl)(1-methyl-1H-pyrazol-4-yl)methanol.TFA], the Kd in assay [1] is 0.33 µM. In addition, in assay [2], the IC50 is 1.8 µM and the inhibition at 6 µM was determined as 77%.
On to `Cc1nc2ccc(C(O)(c3ccc(Cl)cc3)c3cncn3C)cc2c(C)c1Cc1ccccc1` (stereo not drawn) [Example 50, (3-Benzyl-2,4-dimethylquinolin-6-yl)(4-chlorophenyl)(1-methyl-1H-imidazol-5-yl)methanol.TFA], for which the Kd in assay [1] was 0.32 µM. In assay [2], the IC50 is > 6 µM and the inhibition at 6 µM came to 71%.
Turning to `CNC(=O)c1nc2ccc(C(O)(c3ccc(F)cc3)c3cncn3C)cc2c(C(F)(F)F)c1Cc1ccccc1` (stereo not drawn) [Example 51, 3-Benzyl-6-((4-fluorophenyl)(hydroxy)(1-methyl-1H-imidazol-5-yl)methyl)-N-methyl-4-(trifluoromethyl)quinoline-2-carboxamide], the Kd in assay [1] is 1.1 µM. Moreover, in assay [2], half-maximal inhibition (IC50) required 1.9 µM and the inhibition at 6 µM was found to be 98%.
For the compound `Cn1cncc1C(O)(c1ccc(Cl)cc1)c1ccc2nc(O)c(Cc3ccc(-n4cccn4)cc3)c(Cl)c2c1` (stereo not drawn) [Example 55A, 3-(4-(1H-Pyrazol-1-yl)benzyl)-4-chloro-6-((4-chlorophenyl)(hydroxy)(1-methyl-1H-imidazol-5-yl)methyl)quinolin-2-ol], the Kd in assay [1] was 7.6 µM. In assay [2], the IC50 is 1.7 µM and the inhibition at 6 µM amounted to 94%.
As to `COc1nc2c(C)cc(C(O)(c3cncn3C)c3cncn3C)cc2c(Cl)c1Cc1ccc(-n2cccn2)cc1` [Example 56, (3-(4-(1H-Pyrazol-1-yl)benzyl)-4-chloro-2-methoxy-8-methylquinolin-6-yl)bis(1-methyl-1H-imidazol-5-yl)methanol], in assay [1], the Kd was 0.00029 µM. In assay [2], the IC50 stood at 0.012 µM and the inhibition at 6 µM was determined as 102%.
For `COc1nc2c(C)cc(C(O)(c3cncn3C)c3cncn3C)cc2c(Cl)c1Cc1ccc(S(C)(=O)=O)cc1` [Example 57, (4-Chloro-2-methoxy-8-methyl-3-(4-(methylsulfonyl)benzyl)quinolin-6-yl)bis(1-methyl-1H-imidazol-5-yl)methanol.Succinate], the Kd in assay [1] was 0.0084 µM. Also, in assay [2], the IC50 turned out to be 0.057 µM and the inhibition at 6 µM turned out to be 100%.
In the case of `CON(C)c1nc2ccc(C(O)(c3ccc(C(F)(F)F)nc3)c3cncn3C)cc2c(Cl)c1Cc1ccc(-n2cccn2)cc1` (stereo not drawn) [Example 67A, (3-(4-(1H-Pyrazol-1-yl)benzyl)-4-chloro-2-(methoxy(methyl)amino)quinolin-6-yl)(1-methyl-1H-imidazol-5-yl)(6-(trifluoromethyl)pyridin-3-yl)methanol TFA?], the dissociation constant Kd in assay [1] was 0.018 µM. In assay [2], the IC50 was 0.044 µM and the inhibition at 6 µM was found to be 115%.
In the case of `Cn1cncc1C(O)(c1ccc(C(F)(F)F)nc1)c1ccc2nc(N3CCC3)c(Cc3ccc(-n4cccn4)cc3)c(Cl)c2c1` (stereo not drawn) [Example 68A, (3-(4-(1H-Pyrazol-1-yl)benzyl)-2-(azetidin-1-yl)-4-chloroquinolin-6-yl)(1-methyl-1H-imidazol-5-yl)(6-(trifluoromethyl)pyridin-3-yl)methanol], in assay [1], the Kd was 0.0083 µM. Further, in assay [2], it took 0.21 µM to reach half-maximal inhibition (IC50) and the inhibition at 6 µM came out at 99%.
`COc1nc2ccc(C(O)(c3ccc(Cl)cc3)c3cncn3C)cc2c(C#N)c1Cc1ccc(-n2cccn2)cc1` (stereo not drawn) [Example 69, 3-(4-(1H-Pyrazol-1-yl)benzyl)-6-((4-chlorophenyl)(hydroxy)(1-methyl-1H-imidazol-5-yl)methyl)-2-methoxyquinoline-4-carbonitrile]: the Kd in assay [1] is 0.05 µM. Further, in assay [2], half-maximal inhibition (IC50) required 0.17 µM and the inhibition at 6 µM was determined as 103%.
